Data on 2 compounds can be found in paper PMC10267570, “Characterization of the cholesterol biosynthetic pathway in Dioscorea transversa” (The Journal of Biological Chemistry, 2023).

The assay concerns the target T1, CYP51Dt (D. transversa sterol 14α-demethylase).
T1 construct: gene CYP51; C-terminal hexa-histidine tag
Kind of assay: UV–visible difference spectroscopy titration (type I spectrum) of purified P450; also turnover with CPRDt/NADPH by GC–MS. Type of assay: binding, Dioscorea transversa.

`C=C(CC[C@@H](C)[C@H]1CC[C@@]2(C)C3=C(CC[C@]12C)[C@@]1(C)CC[C@H](O)[C@@H](C)[C@@H]1CC3)C(C)C` [compound 7, obtusifoliol] gave an equilibrium dissociation constant (Kd) of 800 ± 250 nM.

With `CC(C)CCC[C@@H](C)[C@H]1CC[C@@]2(C)C3=C(CC[C@]12C)[C@@]1(C)CC[C@H](O)[C@@H](C)[C@@H]1CC3` [compound 19, 4-desmethyl-24,25-dihydrolanosterol], binding was put at a Kd of 2400 ± 180 nM.

In general, Kd refers to a measure of binding affinity in units of concentration. Read a high Kd as a looser complex.
